ChEMBL document CHEMBL1649173, “Single-dose escalation and multiple-dose safety, tolerability, and pharmacokinetics of IDX899, a candidate human immunodeficiency virus type 1 nonnucleoside reverse transcriptase inhibitor, in healthy subjects” (Antimicrob Agents Chemother, 2009)

Assays:
[1] = Half life in healthy human at 800 mg, po qd after 7 days; type: ADME, organism-based; conditions: in vivo
[2] = AUC (0 to infinity) in fasted state healthy human at 200 mg, po administered as single dose; type: ADME, organism-based; design: dose 200 mg, time infinity, route oral; conditions: plasma
[3] = Tmax in healthy human at 800 mg, po qd after 7 days; type: ADME, organism-based; conditions: in vivo
[4] = Tmax in healthy human at 800 mg, po qd after 1 day; type: ADME, organism-based; conditions: in vivo
[5] = Cmax in healthy human at 800 mg, po qd after 7 days; type: ADME, organism-based; design: dose 800 mg, route oral; conditions: in vivo
Homo sapiens [6] = assay: Toxicity in healthy human assessed as occurrence of nausea at 50 to 1200 mg, po administered as single dose; type: organism-based; conditions: in vivo
[7] = AUC (0 to infinity) in fasted state healthy human at 50 mg, po administered as single dose; type: ADME, organism-based; design: dose 50 mg, route oral, time infinity; conditions: plasma
[8] = AUC (0 to infinity) in fed state healthy human at 200 mg, po administered as single dose; type: ADME, organism-based; design: dose 200 mg, route oral, time infinity; conditions: plasma
[9] = Cmax in fed state healthy human at 400 mg, po administered as single dose; type: ADME, organism-based; design: dose 400 mg, route oral; conditions: in vivo
[10] = Cmax in fasted state healthy human at 400 mg, po administered as single dose; type: ADME, organism-based; design: dose 400 mg, route oral; conditions: in vivo
[11] = Tmax in healthy human at 400 mg, po bid after 1 day; type: ADME, organism-based; conditions: in vivo
[12] = AUC (0 to infinity) in healthy human at 400 mg, po bid after 7 days; type: ADME, organism-based; design: dose 400 mg, route oral, time infinity; conditions: plasma
[13] = Tmax in fasted state healthy human at 50 mg, po administered as single dose; type: ADME, organism-based; conditions: in vivo
[14] = Apparent total volume of distribution in fasted state healthy human at 200 mg, po administered as single dose; type: ADME, organism-based; conditions: in vivo, read-out: Vz/F
[15] = Cmax in fed state female healthy human at 400 mg, po administered as single dose; type: ADME, organism-based; design: dose 400 mg, route oral; conditions: in vivo
[16] = Tmax in fed state healthy human at 1200 mg, po administered as single dose; type: ADME, organism-based; conditions: in vivo
Homo sapiens [17] = assay: Toxicity in healthy human assessed as occurrence of dizziness at 50 to 1200 mg, po administered as single dose; type: organism-based; conditions: in vivo
[18] = Plasma concentration in fasted state healthy human at 50 mg, po administered as single dose after 24 hrs; type: ADME, organism-based
[19] = Apparent total plasma clearance in fasted state healthy human at 200 mg, po administered as single dose; type: ADME, organism-based
[20] = Cmax in fasted state healthy human at 200 mg, po administered as single dose; type: ADME, organism-based; design: dose 200 mg, route oral; conditions: in vivo
Homo sapiens [21] = assay: Toxicity in healthy human assessed as incidence of dizziness at 400 mg, po bid and 800 mg, po qd for 7 days; type: organism-based; conditions: in vivo, 168 h
[22] = Apparent total volume of distribution in fed state healthy human at 1200 mg, po administered as single dose; type: ADME, organism-based; conditions: in vivo, read-out: Vz/F
[23] = Apparent total plasma clearance in fed state healthy human at 800 mg, po administered as single dose; type: ADME, organism-based
[24] = Half life in fasted state healthy human at 400 mg, po administered as single dose; type: ADME, organism-based; conditions: in vivo
[25] = AUC (0 to infinity) in fed state healthy human at 800 mg, po administered as single dose; type: ADME, organism-based; design: dose 800 mg, time infinity, route oral; conditions: plasma
[26] = AUC (0 to infinity) in fasted state healthy human at 400 mg, po administered as single dose; type: ADME, organism-based; design: dose 400 mg, time infinity, route oral; conditions: plasma
[27] = AUC (0 to infinity) in fed state healthy human at 1200 mg, po administered as single dose; type: ADME, organism-based; design: dose 1200 mg, route oral, time infinity; conditions: plasma
Homo sapiens [28] = assay: Toxicity in healthy human assessed as incidence of nausea at 400 mg, po bid and 800 mg, po qd for 7 days; type: organism-based; conditions: in vivo, 168 h
[29] = Apparent total plasma clearance in fed state healthy human at 1200 mg, po administered as single dose 0; type: ADME, organism-based
[30] = AUC (0 to infinity) in healthy human at 800 mg, po qd after 7 days; type: ADME, organism-based; design: dose 800 mg, route oral, time infinity; conditions: plasma
[31] = Tmax in fed state healthy human at 200 mg, po administered as single dose; type: ADME, organism-based; conditions: in vivo
[32] = Apparent total volume of distribution in fasted state healthy human at 100 mg, po administered as single dose; type: ADME, organism-based; conditions: in vivo, read-out: Vz/F
[33] = Cmax in fed state healthy human at 800 mg, po administered as single dose; type: ADME, organism-based; design: dose 800 mg, route oral; conditions: in vivo
Homo sapiens [34] = assay: Toxicity in healthy human assessed as incidence of adverse events at 50 to 1200 mg, po administered as single dose; type: organism-based; conditions: in vivo
[35] = Trough plasma concentration in healthy human at 800 mg, po qd after 7 days; type: ADME, organism-based; conditions: read-out: Cmin
[36] = AUC (0 to infinity) in fed state female healthy human at 400 mg, po administered as single dose; type: ADME, organism-based; design: dose 400 mg, time infinity, route oral; conditions: plasma
[37] = Cmax in healthy human at 400 mg, po bid after 7 days; type: ADME, organism-based; design: dose 400 mg, route oral; conditions: in vivo
[38] = Oral bioavailability in human; type: ADME, organism-based; conditions: in vivo
[39] = Half life in fed state healthy human at 800 mg, po administered as single dose; type: ADME, organism-based; conditions: in vivo
[40] = Tmax in fasted state healthy human at 400 mg, po administered as single dose; type: ADME, organism-based; conditions: in vivo
[41] = AUC (0 to infinity) in healthy human at 800 mg, po qd after 1 day; type: ADME, organism-based; design: dose 800 mg, time infinity, route oral; conditions: plasma
[42] = Apparent total plasma clearance in healthy human at 400 mg, po bid after 7 days; type: ADME, organism-based
[43] = Apparent total plasma clearance in fasted state healthy human at 50 mg, po administered as single dose; type: ADME, organism-based
[44] = Apparent total volume of distribution in fed state healthy human at 800 mg, po administered as single dose; type: ADME, organism-based; conditions: in vivo, read-out: Vz/F
[45] = Half life in fed state healthy human at 400 mg, po administered as single dose; type: ADME, organism-based; conditions: in vivo
[46] = Apparent total volume of distribution in fed state healthy human at 400 mg, po administered as single dose; type: ADME, organism-based; conditions: in vivo, read-out: Vz/F
Homo sapiens [47] = assay: Toxicity in healthy human assessed as incidence of abnormal dreams at 400 mg, po bid and 800 mg, po qd for 7 days; type: organism-based; conditions: in vivo, 168 h
[48] = Plasma concentration in fed state healthy human at 400 mg, po administered as single dose after 24 hrs; type: ADME, organism-based
[49] = Tmax in fasted state healthy human at 100 mg, po administered as single dose; type: ADME, organism-based; conditions: in vivo
[50] = Plasma concentration in fed state female healthy human at 400 mg, po administered as single dose after 24 hrs; type: ADME, organism-based

Compound `COP(=O)(c1cc(C)cc(/C=C/C#N)c1)c1c(C(N)=O)[nH]c2ccc(Cl)cc12` (stereo not given) has a half-life [1] of 13.6 h, an AUC(0-inf) [2] of 7100 ng·h/mL and a Tmax [3] of 4 h. It also gave a Tmax [4] of 4 h, a Cmax [5] of 4600 ng/mL and an Activity (Homo sapiens [6]) of 4.1%. The AUC(0-inf) [7] was 8800 ng·h/mL, the AUC(0-inf) [8] was 16800 ng·h/mL and the Cmax [9] was 2400 ng/mL. The Cmax [10] was 1100 ng/mL, the Tmax [11] was 4 h and the AUC(0-inf) [12] was 35200 ng·h/mL. For the same compound, the Tmax [13] was 1.5 h, the Vd/F [14] was 555 L and the Cmax [15] was 1900 ng/mL. For the same compound, the Tmax [16] was 10.1 h, the Activity (Homo sapiens [17]) was 2% and the concentration at 24 h [18] was 50 ng/mL. For the same compound, the CL/F [19] was 555 mL/min, the Cmax [20] was 700 ng/mL and the Activity (Homo sapiens [21]) was 0%. The Vd/F [22] was 134 L, the CL/F [23] was 297 mL/min and the half-life [24] was 14.6 h. For the same compound, the AUC(0-inf) [25] was 47200 ng·h/mL, the AUC(0-inf) [26] was 14700 ng·h/mL and the AUC(0-inf) [27] was 106000 ng·h/mL. The Activity (Homo sapiens [28]) was 0%, the CL/F [29] was 197 mL/min and the AUC(0-inf) [30] was 54600 ng·h/mL. It also gave a Tmax [31] of 7 h, a Vd/F [32] of 66.3 L and a Cmax [33] of 3000 ng/mL. The Activity (Homo sapiens [34]) was 22.4%, the concentration at 168 h [35] was 900 ng/mL and the AUC(0-inf) [36] was 26500 ng·h/mL. The Cmax [37] was 4000 ng/mL, the bioavailability [38] was 61% and the half-life [39] was 11.5 h. For the same compound, the Tmax [40] was 1.8 h, the AUC(0-inf) [41] was 68000 ng·h/mL and the CL/F [42] was 268 mL/min. It also gave a CL/F [43] of 103 mL/min, a Vd/F [44] of 301 L and a half-life [45] of 9.8 h. For the same compound, the Vd/F [46] was 166 L, the Activity (Homo sapiens [47]) was 6.3% and the concentration at 24 h [48] was 360 ng/mL. For the same compound, the Tmax [49] was 1.5 h and the concentration at 24 h [50] was 290 ng/mL.
